Results on two molecules are retold here after patent publication US20220054588A1, “USE OF SAP FOR THE TREATMENT OF EUROTIOMYCETES FUNGI INFECTIONS” (HUMANITAS MIRASOLE S.P.A., priority 2018, published 2022).

Some results are limits rather than exact numbers.

Assay [1] deals with A. fumigatus. Description: Therapy of invasive aspergillosis in cyclophosphamide-immunosuppressed mice (survival, lung CFU). The note with it: for MST / survival: 4 mg/Kg i.p. at 2 and 24 h; for survival: cyclophosphamide-treated mice. The assay is classed as in vivo. Here is the method:
FIG. 12 depicts the therapeutic efficacy of SAP in treatment of invasive aspergillosis. a) b) c) survival of transiently immunosuppressed wt mice after injection with the indicated doses of AF conidia. The curve of untreated mice (n=3) with cyclophosphamide is also shown (a). Human SAP (4 mg/Kg) was injected at 2 h and 24 h after infection. a) AF 5.10^7, n=17; AF 5.10^7+SAP, n=15; b) AF 1.10^7, n=7; AF 1.10^7+SAP, n=8; c) AF 5.10^6, n=8; AF 5.10^6+SAP, n=10.***, P<0.005 SAP-treated vs. saline (Mantel-Cox test). One-way ANOVA, P<0.0001. d) lung CFU in mice treated with cyclophosphamide and infected with 1.10^7 AF conidia.*, P<0.05 (Mann-Whitney test). e) quantitative analysis of AF viability performed using a resazurin-based assay. Plasma (30%) from wt and Apcs^−/− mice were incubated (1 min) with 1.5×10^5 AF conidia pre-opsonized or not with SAP. Results are mean±SD of red fluorescence (excitation/emission 535/580-610 nm) intensity of the resazurin once reduced to resorufin within viable cells. Effect of Posaconazole (POC; 1 μM) exposure is also shown. Results are mean±SEM relative to the condition without serum (grey symbols) of two experiments performed with n=10 mice/group. […] AF viability assay performed in sera depleted from complement components. Figure summarizes one experiment out of 5 also conducted with serum 10%. Mean±SD.*, P<0.05; **, P<0.01 (unpaired t-test). g) and h) FACS analysis of MAC deposition on AF conidia (1×10^7) in presence of sera depleted from complement components (e) and the effect of SAP (f). Mean±SEM of 2 experiments performed out of 4. e, f,*, P<0.05;**, P<0.01;***, P<0.005;****, P<0.001; (Mann-Whitney test).
FIG. 13 depicts the therapeutic efficacy of SAP in treatment of invasive aspergillosis alone or in combination with posaconazole. Survival of transiently cyclophosphamide-immunosuppressed mice after injection with 5×10^7 conidia. Human SAP (4 mg/Kg) and Posaconazole (POS; 1.6 mg/Kg) were injected at 16 h and 40 h after infection. AF 5.10^7+ saline, n=9; AF 5.10^7+SAP, n=8; AF 5.10^7+POS, n=9; AF 5.10^7+SAP+POS, n=8. P<0.01, saline vs. hSAP; P<0.005, saline vs. POS; P<0.0005, saline vs. hSAP+POS; P<0.05, POS vs. hSAP+POS; (Mantel-Cox test).
(§1) The growth and culture conditions of A. fumigatus and A. Flavus conidia were as described (Garlanda et al., 2002). For intratracheal (i.t.) injection, mice were anesthetized by i.p. injection of ketamine (100 mg/Kg; i.p.) and xylazine (10 mg/Kg i.p.). After surgical exposure, a volume of 50 μl PBS^2+, pH 7.4, containing 1×10^8 or 5×10^7 resting conidia (>95% viable, as determined by serial dilution and plating of the inoculum on Sabouraud dextrose agar) were delivered into trachea under direct vision using a catheter connected to the outlet of a micro-syringe (Terumo, Belgium). Survival to infection was daily monitored for 10d later. Dying mice were euthanized after evaluation of the following clinical parameters: body temperature dropping, intermittent respiration, solitude presence, sphere posture, fur erection, non-responsive alertness, and inability to ascent when induced.
In therapy experiments, immunosuppression was induced by i.p. injection of 150 mg/Kg cyclophosphamide (150μl per mouse of 20 mg/ml solution) 2d before infection. Native human SAP (Merck-Millipore) was dialysed in PBS (pH 7.4) in order to eliminate sodium azide and i.p. injected at the dose of 4 mg/Kg at 2 and 24 h after infection or in combination with Posaconazole (POS; 1.6 mg/Kg) at 16 h and 40 h after infection.
Lung homogenates and analysis. Lungs were removed 16 h after infection and homogenized in 1 ml PBS, pH 7.4, containing 0.01% (vol/vol) Tween-20® (Merck-Millipore) and protease inhibitors. Samples were serially diluted 1:10 in PBS and plated on Sabouraud dextrose agar for blinded CFU counting. […]

Assay [2] concerns A. fumigatus. The assay can be described thus: Rescue experiment: survival after i.t. injection of Sap-opsonised A. fumigatus conidia. The conditions noted are these: 5×10^7 i.t. Type of assay: in vivo, mice. The protocol:
FIG. 5 depicts the rescue of susceptibility to A. fumigatus in SAP-deficient mice. a) b) c) d) i.t. injection of non-opsonised or Sap-opsonised AF conidia. a) survival of wt and Apcs^−/− mice. Wt, n=10; wt+Sap, n=10; Apcs^−/−, n=14; Apcs^−/−+Sap, n=13.****, P<0.0001, wt vs. Apcs^−/− or Apcs^−/− vs. Apcs^−/−+Sap (Mantel-Cox test). b) and c) levels of TNF-α (b) and MPO (c) in BALFs of mice (16 h). b),****, P<0.0001;**, P<0.01. c),***, P<0.0005. d, FACS analysis of neutrophil recruitment in lung (16 h). Mean±SEM.****, P<0.0001;*, P<0.05. b), c), d), Mean±SEM; Mann-Whitney test.
as §1
In experiments of in vivo phagocytosis, mice were i.t. injected with 5×10^7 heat inactivated fluorescein isothiocyanate (FITC)-labelled conidia and euthanized 4 h later. In rescue experiments, conidia (1×10^9) were opsonized with murine recombinant SAP (50 μg/ml; R&D Systems) for 1 h at r.t. in PBS, pH 7.4, containing 0.01% (vol/vol) Tween-20® (Merck-Millipore). After washing of unbound protein, a volume of 50 μl (5×10^7 conidia) was i.t. injected.

With “human native SAP: Native SAP from human serum purchased by Merck-Millipore; Serum Amyloid P component, SEQ ID NO: 1”, the MST in the assay with A. fumigatus [1] (1×10^7 conidia) was over 10; with A. fumigatus [1] (5×10^6 conidia), over 10; in the assay on A. fumigatus [1] (5×10^7 conidia), 4. The values for the survival with A. fumigatus [1] (1×10^7 conidia), in the assay on A. fumigatus [1] (5×10^6 conidia) and in the assay on A. fumigatus [1] (5×10^7 conidia) were 62.5%, 80% and 20%, respectively. In the assay on A. fumigatus [1] (16 h, 1×10^7 conidia, SAP-treated mice), the “lung fungal burden, median” value is 2.0×10^6 CFU. Moreover, in the assay with A. fumigatus [1] (16 h, 1×10^7 conidia, SAP-treated vs. untreated), the “reduction in fungal burden in lung” value is reported as 12 fold.

B1: recombinant murine SAP: recombinant murine SAP from mouse myeloma cell line NSO (R&D Systems) (protein, UniProt P12246 21-224, looked up)
Serum amyloid P-component: QTDLKRKVFVFPRESETDHVKLIPHLEKPLQNFTLCFRTYSDLSRSQSLFSYSVKGRDNELLIYKEKVGEYSLYIGQSKVTVRGMEEYLSPVHLCTTWESSSGIVEFWVNGKPWVKKSLQREYTVKAPPSIVLGQEQDNYGGGFQRSQSFVGEFSDLYMWDYVLTPQDILFVYRDSPVNPNILNWQALNYEINGYVVIRPRVWD
Take B1: in the assay with A. fumigatus [2] (Apcs−/− mice), the MST is listed as over 10 days and the “mice that resisted infection (survival)” value was determined as 69%. In the assay with A. fumigatus [2] (wt mice), this molecule returned an MST of over 10 and a survival of 70%.
